Structures are written as SMILES. Peptide text beside a SMILES is read from it.

The nature of this series: log P value (octanol/water partition coefficient). It counts as physicochemical. The following applies: octanol / aqueous buffer solution at pH 7. An excerpt: The log P value of the nonionic water-soluble agent may be 1.8 or less, 1.5 or less, 1.3 or less, or 1.0 or less, and may be −4.0 or more, −3.8 or more, −3.5 or more, −3.3 or more, −3.0 or more, −2.7 or more, or −2.5 or more. The “log P value” herein is a parameter that represents the tendencies of partitioning of a substance into water and octanol, and is a value commonly used as an index to determine the degree of hydrophilicity or hydrophobicity of a substance. The smaller the log P value, the more hydrophilic the substance is meant to be. The larger the log P value, the more hydrophobic the substance is meant to be. The log P value may also be referred to as “octanol/water partition coefficient” according to the method of its calculation. The octanol/water partition coefficient can be determined by adding an agent into a flask containing octanol and an aqueous buffer solution at pH 7, shaking the flask, and then performing calculation according to the following Equation A based on the agent concentration in each phase: […]
`C[N+](C)(C)CC(=O)[O-]` [trimethylglycine] came in with a logP of 0.1. The same measure for `NCCS(=O)(=O)O` [taurine]: 1.4. Consider `O=C1O[C@H]([C@@H](O)CO)C(O)=C1O` [L-ascorbic acid], for which the logP worked out at 1.6. On to `CCOC1=C(O)[C@@H]([C@@H](O)CO)OC1=O` [2-O-ethyl ascorbic acid], for which the logP is -1.5. The same measure for `NCC(=O)NCC(=O)O` [glycylglycine] (H-Gly-Gly-OH): -2.3; for `OC[C@@H](O)[C@H](O)[C@@H](O)CO` [xylitol]: -2.5. The same measure for `O=C1NCCN1CCO` [1-(2-hydroxyethyl)-2-imidazolidinone]: -1.4. The same measure for `OC[C@H]1O[C@H](O[C@H]2O[C@H](CO)[C@@H](O)[C@H](O)[C@H]2O)[C@H](O)[C@@H](O)[C@@H]1O` [trehalose]: -1.7; for `Cc1ncc(CO)c(CO)c1O` [pyridoxine]: -0.8. Take `NC(=O)c1cccnc1` [niacinamide]: the logP is -0.4.

`NC[C@H]1CC[C@H](C(=O)O)CC1` [tranexamic acid, reference compound]: the logP is -2. `OCC(O)CO` [Glycerin]: the lipophilicity (logP) is -1.8.

On to `Nc1ncnc2c1ncn2[C@@H]1O[C@H](CO)[C@@H](O)[C@H]1O` [adenosine], for which the logP is -1.1. For `OC[C@H]1O[C@@H](Oc2ccc(O)cc2)[C@H](O)[C@@H](O)[C@@H]1O` [arbutin] the value was -0.7; for `CC(O)CCO` (stereo not drawn) [1,3-butylene glycol], -0.4.

Usually logP stands for a log measure of how a compound divides between an organic and an aqueous phase.

Values taken from patent US20260199193A1, “POWDERY SOLID COSMETIC” (Shiseido Company, Ltd., priority 2022, published 2026).
